Laboratory results taken from paper PMC11473416, “Coumarin-chalcone derivatives as dual NLRP1 and NLRP3 inflammasome inhibitors targeting oxidative stress and inflammation in neurotoxin-induced HMC3 and BE(2)-M17 cell models of Parkinson's disease” (Frontiers in Aging Neuroscience, 2024).

Legend:
Assay type in all cases: cell-based, human
p-CREB (Ser133) = test: Western blot p-CREB (Ser133) in MPP^+-treated BE(2)-M17 cells; conditions: BE(2)-M17, compound 10 μM + 0.62 mM MPP^+; MPP^+ alone 83%; untreated = 100%
Method: HMC3 (2 × 10^5/6-well) or BE(2)-M17 (4 × 10^5/6-well) cells were lysed in buffer (composition: 50 mM Tris-HCl pH8.0, 2 mM EDTA pH8.0, 150 mM NaCl, 0.5% sodium deoxycholate, 0.1% SDS, 50 mM NaF, 1% NP40) containing the protease and/or phosphatase inhibitor cocktail (Sigma-Aldrich). After sonication, the lysates were centrifuged (12,000 × g for 10 min at 4°C) and protein concentrations determined (Bradford protein assay; Bio-Rad, Hercules, CA, USA). Aliquots of protein (20 μg) were separated by electrophoresis using 10%−12% SDS–polyacrylamide gel followed by transfer to a polyvinylidene fluoride (PVDF) membrane. […] The immune complexes were detected using horseradish peroxidase (HRP)-conjugated goat anti-mouse or goat anti-rabbit IgG antibody (1:5,000; GeneTex) and chemiluminescent HRP substrate (Millipore, Burlington, MA, USA). Immunoreactive bands were captured (ImageQuant™ LAS 4000, GE Healthcare, Chicago, IL, USA) and quantified (Multi Gauge V3.0 software, Fujifilm, Tokyo, Japan).

NQO1 = test: Western blot NQO1 in MPP^+-treated BE(2)-M17 cells; conditions: BE(2)-M17, compound 10 μM + 0.62 mM MPP^+; MPP^+ alone 53%; untreated = 100%
Method: HMC3 (2 × 10^5/6-well) or BE(2)-M17 (4 × 10^5/6-well) cells were lysed in buffer (composition: 50 mM Tris-HCl pH8.0, 2 mM EDTA pH8.0, 150 mM NaCl, 0.5% sodium deoxycholate, 0.1% SDS, 50 mM NaF, 1% NP40) containing the protease and/or phosphatase inhibitor cocktail (Sigma-Aldrich). After sonication, the lysates were centrifuged (12,000 × g for 10 min at 4°C) and protein concentrations determined (Bradford protein assay; Bio-Rad, Hercules, CA, USA). […] The immune complexes were detected using horseradish peroxidase (HRP)-conjugated goat anti-mouse or goat anti-rabbit IgG antibody (1:5,000; GeneTex) and chemiluminescent HRP substrate (Millipore, Burlington, MA, USA). Immunoreactive bands were captured (ImageQuant™ LAS 4000, GE Healthcare, Chicago, IL, USA) and quantified (Multi Gauge V3.0 software, Fujifilm, Tokyo, Japan).

[1] = cytotoxicity MTT assay in HMC3 cells; conditions: human, MTT, 1–100 μM, 24 h
Method: (§1) Human HMC3 microglial (CRL-3304) and neuroblastoma BE(2)-M17 (CRL-2267) cells were obtained from American Type Culture Collection. BE(2)-M17 develops a better dopaminergic phenotype than SH-SY5Y when treated with retinoic acid to direct neuronal differentiation (Carvajal-Oliveros et al., [2022]). Cells were routinely maintained in Dulbecco's Modified Eagle Medium-Nutrient Mixture F12 (DMEM-F12) supplemented with 10% fetal bovine serum (FBS; Thermo Fisher Scientific, Waltham, MA, USA) in a 37°C incubator, with 95% relative humidity and 5% CO2 (NuAire, Plymouth, MN, USA).
(§2) To evaluate cytotoxicity of LM compounds and MPP^+, HMC3 (1 × 10^4) or BE(2)-M17 (2 × 10^4) cells were plated on 96-well dishes, grown for 20 h, and treated with LM compounds (1–100 μM) or MPP^+ [HMC3: 0–8 mM; BE(2)-M17: 0–5 mM]. Next day, 20 μl of tetrazolium dye 3-(4,5-dimethylthiazol-2-yl)-2,5-diphenyltetrazolium bromide (MTT, 5 mg/ml; Sigma-Aldrich) was added to the cells at 37°C for 3 h. The resulted insoluble purple formazan products were dissolved by lysis buffer (composition: 10% Triton X-100, 0.1 N HCl, 18% isopropanol). The absorbance of the dissolved product at optical density (OD) 570 nm was read by using a FLx800 fluorescence microplate spectrophotometer (Bio-Tek, Winooski, VT, USA). The half maximal inhibitory concentration (IC50) of LM compounds was determined through the construction of a dose-response curve. MPP^+ at 4 mM (HMC3 cell viability: 65%−69%) or 0.62 mM [BE(2)-M17 cell viability: 79%−84%] was selected to induce inflammation for further experiments.

[2] = cytotoxicity MTT assay in BE(2)-M17 cells; conditions: human, MTT, 1–100 μM, 24 h
Method: as §1, §2

caspase-3 = caspase-3 activity assay in MPP^+-treated BE(2)-M17 cells
Method: BE(2)-M17 cells were plated onto six-well (4 × 10^5/well) and treated with retinoic acid, LM compounds (10 μM), and MPP^+ as described. Cells were collected on day 7 and lysed by six freeze/thaw cycles. Types of substrates applied were: Ac-Tyr-Val-Ala-Asp-7-amino-4-trifluoromethyl coumarin (YVAD-AFC) for caspase-1, Ac-Val-Glu-Ile-Asp-7-amino-4-trifluoromethyl coumarin (VEID-AFC) for caspase-6 (BioVision, Milpitas, CA, USA), and Ac-Asp-Glu-Val-Asp-7-amido-4-methylcoumarin (DEVD-AMC) for caspase-3 (Sigma-Aldrich). The reaction mixtures were incubated for 1.5 h at 37°C per the manufacturer's instructions. The fluorescence intensity at 400 nm excitation and 505 nm emission (caspase-1 and caspase-6) or 360 nm excitation and 460 nm emission (caspase-3) wavelengths were recorded (BioTek FLx800).

[3] = system: tyrosine hydroxylase (TH); test: tyrosine hydroxylase immunofluorescence staining in MPP^+-treated BE(2)-M17 cells; conditions: for TH expression (immunofluorescence): BE(2)-M17, compound 10 μM + 0.62 mM MPP^+, MPP^+ alone 107%, untreated = 100%
Method: BE(2)-M17 cells were seeded in 24-well plate (5 × 10^4/well) and treated with retinoic acid, LM compounds (10 μM), and MPP^+ as described. On day 7, cells were fixed (4% PFA), permeabilized (0.1% Triton X-100), blocked (2% BSA), and stained with primary tyrosine hydroxylase (TH; a marker for dopamine-containing neurons; Haavik and Toska, [1998]) antibody (#sc-374047; 1:500; Santa Cruz Biotechnology, Santa Cruz, CA, USA) at 4°C overnight, followed by Alexa Fluor 488-donkey anti-mouse IgG secondary antibody (#A-21202; 1:1,000; Thermo Fisher Scientific) at room temperature for 2 h. Nuclei were detected using DAPI (0.1 μg/ml). Dopaminergic differentiation was examined by fluorescence imaging of Alexa Fluor 488 as described.

[4] = BE(2)-M17, compound 10 μM + 0.62 mM MPP^+, MPP^+-untreated = 100%

O=C(/C=C/c1ccccc1O)c1c(O)c2ccccc2oc1=O [LM-036]
p-CREB (Ser133) level (p-CREB (Ser133)): 102–105%
NQO1 level (NQO1): 81–86%
IC50 [1]: > 100 µM
IC50 [2]: > 100 µM
caspase-3 activity (caspase-3; [4]): 101%
TH expression (immunofluorescence) [3]: 128%

C[n+]1ccc(-c2ccccc2)cc1 [MPP^+, 1-methyl-4-phenyl pyridinium, reference compound]
caspase-3 activity (caspase-3; BE(2)-M17, 0.62 mM MPP^+ alone, untreated = 100%): 114%
TH immunofluorescence ([3]; BE(2)-M17, 0.62 mM MPP^+ alone, 40 h, untreated control = 100%): 107%

CN(C)c1ccc(/C=C/C(=O)c2c(O)c3ccccc3oc2=O)cc1 [LM-021, (E)-3-(3-(4-(dimethylamino)phenyl)acryloyl)-4-hydroxy-2H-chromen-2-one]
p-CREB (Ser133) level (p-CREB (Ser133)): 102–105%
IC50 [1]: > 100 µM
IC50 [2]: > 100 µM
caspase-3 activity (caspase-3; [4]): 101%
TH expression (immunofluorescence) [3]: 165%

Cc1ccc(/C=C/C(=O)c2c(O)c3ccccc3oc2=O)cc1 [LM-016]
NQO1 level (NQO1): 81–86%
IC50 at 24 h ([1]; HMC3 microglial cells): > 100 µM
IC50 at 24 h ([2]; BE(2)-M17 neuroblastoma cells): > 100 µM
caspase-3 activity (caspase-3; [4]): 102%
